Reference: patent US10696615B2, “Prenylated hydroxystilbenes” (The University of Sydney, priority 2011, dated 2020)

Experiments:
Type in all cases: cell-based, human
[1] = system: NCI-H322M; assay: NCI in vitro cancer screen, Non-Small Cell Lung Cancer; conditions: for GI50 / LC50 (50% lethal concentration): Homo sapiens
[2] = system: MDA-MB-468; assay: NCI in vitro cancer screen, Breast Cancer; conditions: MDA-MB-468; for GI50 / CC50: Homo sapiens; for CC50: read-out: LC50 (the source's name)
[3] = system: HT29; assay: NCI in vitro cancer screen, Colon Cancer; conditions: HT29; for GI50 / CC50: Homo sapiens, HT-29; for CC50: read-out: LC50 (the source's name)
[4] = system: HCT-116; assay: NCI in vitro cancer screen, Colon Cancer; conditions: HCT-116; for GI50 / LC50 (concentration killing 50% of cells): Homo sapiens
[5] = system: OVCAR-4; assay: NCI in vitro cancer screen, Ovarian Cancer; conditions: OVCAR-4; for GI50 / CC50: Homo sapiens; for CC50: read-out: LC50 (the source's name)
[6] = system: RPMI-8226; assay: NCI in vitro cancer screen, Leukemia; conditions: RPMI-8226; for GI50 / CC50: Homo sapiens; for CC50: read-out: LC50 (the source's name)
[7] = system: NCI-H460; assay: NCI in vitro cancer screen, Non-Small Cell Lung Cancer; conditions: NCI-H460; for GI50 / CC50: Homo sapiens; for CC50: read-out: LC50 (the source's name)
[8] = system: U251; assay: NCI in vitro cancer screen, CNS Cancer; conditions: U251; for GI50 / CC50: Homo sapiens, U-251; for CC50: read-out: LC50 (the source's name)
[9] = system: SNB-19; assay: NCI in vitro cancer screen, CNS Cancer; conditions: SNB-19; for GI50 / CC50: Homo sapiens; for CC50: read-out: LC50 (the source's name)
[10] = system: ACHN; assay: NCI in vitro cancer screen, Renal Cancer; conditions: for GI50 / CC50: Homo sapiens; for CC50: read-out: LC50 (the source's name)
[11] = system: HCC-2998; assay: NCI in vitro cancer screen, Colon Cancer; conditions: HCC-2998; for GI50 / CC50: Homo sapiens; for CC50: read-out: LC50 (the source's name)
[12] = system: NCI-H23; assay: NCI in vitro cancer screen, Non-Small Cell Lung Cancer; conditions: NCI-H23; for GI50 / LC50: Homo sapiens
[13] = system: HCT-15; assay: NCI in vitro cancer screen, Colon Cancer; conditions: HCT-15; for GI50 / CC50: Homo sapiens; for CC50: read-out: LC50 (the source's name)
[14] = system: UO-31; assay: NCI in vitro cancer screen, Renal Cancer; conditions: UO-31; for GI50 / CC50: Homo sapiens; for CC50: read-out: LC50 (the source's name)
[15] = system: UACC-257; assay: NCI in vitro cancer screen, Melanoma; conditions: UACC-257; for GI50 / CC50: Homo sapiens; for CC50: read-out: LC50 (the source's name)
[16] = system: M14; assay: NCI in vitro cancer screen, Melanoma; conditions: M14; for GI50 / CC50: Homo sapiens; for CC50: read-out: LC50 (the source's name)
[17] = system: MDA-MB-231 (MDA-MB-231/ATCC); assay: NCI in vitro cancer screen, Breast Cancer; conditions: MDA-MB-231; for GI50 / CC50: Homo sapiens; for CC50: read-out: LC50 (the source's name)
[18] = system: SK-MEL-2; assay: NCI in vitro cancer screen, Melanoma; conditions: SK-MEL-2; for GI50 / LC50: Homo sapiens
[19] = system: MCF7; assay: NCI in vitro cancer screen, Breast Cancer; conditions: MCF7; for GI50 / CC50: Homo sapiens; for CC50: read-out: LC50 (the source's name)
[20] = system: CAKI-1; assay: NCI in vitro cancer screen, Renal Cancer; conditions: CAKI-1; for GI50 / CC50: Homo sapiens; for CC50: read-out: LC50 (the source's name)
[21] = system: SK-MEL-28; assay: NCI in vitro cancer screen, Melanoma; conditions: SK-MEL-28; for GI50 / LC50: Homo sapiens
[22] = system: COLO 205; assay: NCI in vitro cancer screen, Colon Cancer; conditions: COLO 205; for GI50 / CC50: Homo sapiens; for CC50: read-out: LC50 (the source's name)
[23] = system: MALME-3M; assay: NCI in vitro cancer screen, Melanoma; conditions: for GI50 / CC50: Homo sapiens, Malme-3M; for CC50: read-out: LC50 (the source's name); for TGI: MALME-3M
[24] = system: CCRF-CEM; assay: NCI in vitro cancer screen, Leukemia; conditions: for GI50 / CC50: Homo sapiens; for CC50: read-out: LC50 (the source's name)
[25] = system: ADR-RES (NCI/ADR-RES); assay: NCI in vitro cancer screen, Ovarian Cancer; conditions: for TGI: ADR-RES; for GI50 / CC50: Homo sapiens, NCI/ADR-RES; for CC50: read-out: LC50 (the source's name)
[26] = system: EKVX; assay: NCI in vitro cancer screen, Non-Small Cell Lung Cancer; conditions: for GI50 / CC50: Homo sapiens; for CC50: read-out: LC50 (the source's name)
[27] = system: DU-145; assay: NCI in vitro cancer screen, Prostate Cancer; conditions: DU-145; for GI50 / CC50: Homo sapiens; for CC50: read-out: LC50 (the source's name)

## CC(C)=CCc1c(O)cc(/C=C/c2ccc(O)c(O)c2)c(CC=C(C)C)c1O [USYDS7, (E)-2,4-di(3-methyl-2-buten-1-yl)-3,3′,4′,5-tetrahydroxystilbene]
[1]
  TGI: 18.1 µM
  GI50: 5.29 µM
  LC50 (50% lethal concentration): 44.7 µM
[2]
  GI50: 2.12 µM
  CC50: 13.9 µM
  TGI: 4.84 µM
[3]
  TGI: 10.8 µM
  GI50: 3.64 µM
  CC50: 45.8 µM
[4]
  TGI: 3.02 µM
  GI50: 1.57 µM
  LC50 (concentration killing 50% of cells): 5.82 µM
[5]
  GI50: 2.85 µM
  CC50: 66.8 µM
  TGI: 11.1 µM
[6]
  GI50: 2.31 µM
  CC50: 61.1 µM
  TGI: 6.01 µM
[7]
  GI50: 1.64 µM
  CC50: 6.33 µM
  TGI: 3.22 µM
[8]
  GI50: 1.49 µM
  CC50: 5.74 µM
  TGI: 2.93 µM
[9]
  GI50: 2.8 µM
  CC50: 39.9 µM
  TGI: 8.64 µM
[10]
  TGI: 9.12 µM
  GI50: 2.58 µM
  CC50: 37.6 µM
[11]
  TGI: 4.26 µM
  GI50: 1.95 µM
  CC50: 9.34 µM
[12]
  GI50: 1.81 µM
  LC50: 29.5 µM
  TGI: 5.22 µM
[13]
  TGI: 3.78 µM
  GI50: 1.29 µM
  CC50: 22 µM
[14]
  GI50: 1.6 µM
  CC50: 7.46 µM
  TGI: 3.46 µM
[15]
  GI50: 2.18 µM
  CC50: 23 µM
  TGI: 5.93 µM
[16]
  GI50: 1.79 µM
  CC50: 7.73 µM
  TGI: 3.71 µM
[17]
  GI50: 1.49 µM
  CC50: 10.7 µM
  TGI: 3.89 µM
[18]
  GI50: 3.2 µM
  LC50: 42.9 µM
  TGI: 7.82 µM
[19]
  GI50: 2.1 µM
  CC50: 57.9 µM
  TGI: 12.0 µM
[20]
  TGI: 16.2 µM
  GI50: 4.24 µM
  CC50: 49 µM
[21]
  GI50: 3.65 µM
  LC50: 36.7 µM
  TGI: 11.8 µM
[22]
  TGI: 4.34 µM
  GI50: 1.79 µM
  CC50: 12.2 µM
[23]
  GI50: 1.97 µM
  CC50: 10.4 µM
  TGI: 4.46 µM
[24]
  TGI: 8.48 µM
  GI50: 2.73 µM
  CC50: 71.2 µM
[25]
  TGI: 7.90 µM
  GI50: 2.23 µM
  CC50: 42.4 µM
[26]
  TGI: 14.7 µM
  GI50: 4.25 µM
  CC50: 44.9 µM
[27]
  TGI: 7.62 µM
  GI50: 2.65 µM
  CC50: 28.3 µM

## COc1cc(O)cc(/C=C/c2ccc(O)c(O)c2)c1CC=C(C)C [USYDS9, (E)-2-(3-methyl-2-buten-1-yl)-3′,4′,5-trihydroxy-3-methoxystilbene]
[1]
  TGI: >100 µM
  GI50: 0.76 µM
  LC50 (50% lethal concentration): > 100 µM
[2]
  GI50: 2.42 µM
  CC50: > 100 µM
  TGI: 8.48 µM
[3]
  TGI: 46.6 µM
  GI50: 18.6 µM
  CC50: > 100 µM
[4]
  TGI: 12.8 µM
  GI50: 1.4 µM
  LC50 (concentration killing 50% of cells): 75 µM
[5]
  GI50: 5.48 µM
  CC50: > 100 µM
  TGI: >100 µM
[6]
  GI50: 0.45 µM
  CC50: > 100 µM
  TGI: >100 µM
[7]
  GI50: 0.47 µM
  CC50: 75.7 µM
  TGI: 10.3 µM
[8]
  GI50: 0.59 µM
  CC50: > 100 µM
  TGI: 19.6 µM
[9]
  GI50: 0.55 µM
  CC50: > 100 µM
  TGI: >100 µM
[10]
  TGI: >100 µM
  GI50: 0.66 µM
  CC50: > 100 µM
[11]
  TGI: 21.2 µM
  GI50: 4.18 µM
  CC50: > 100 µM
[12]
  GI50: 1.43 µM
  LC50: > 100 µM
  TGI: >100 µM
[13]
  TGI: >100 µM
  GI50: 0.43 µM
  CC50: > 100 µM
[14]
  GI50: 0.46 µM
  CC50: > 100 µM
  TGI: >100 µM
[15]
  GI50: 6.15 µM
  CC50: > 100 µM
  TGI: 59.2 µM
[16]
  GI50: 0.3 µM
  CC50: > 100 µM
  TGI: 5.69 µM
[17]
  GI50: 0.38 µM
  CC50: > 100 µM
  TGI: 2.61 µM
[18]
  GI50: 2.17 µM
  LC50: > 100 µM
  TGI: 12.1 µM
[19]
  GI50: 2.81 µM
  CC50: > 100 µM
  TGI: >100 µM
[20]
  TGI: >100 µM
  GI50: 19.1 µM
  CC50: > 100 µM
[21]
  GI50: 8.14 µM
  LC50: > 100 µM
  TGI: >100 µM
[22]
  TGI: 83.6 µM
  GI50: 21.7 µM
  CC50: > 100 µM
[23]
  GI50: 0.62 µM
  CC50: > 100 µM
  TGI: >100 µM
[24]
  TGI: >100 µM
  GI50: 2.14 µM
  CC50: > 100 µM
[25]
  TGI: 3.69 µM
  GI50: 0.29 µM
  CC50: > 100 µM
[26]
  TGI: >100 µM
  GI50: 26.4 µM
  CC50: > 100 µM
[27]
  TGI: 2.62 µM
  GI50: 0.35 µM
  CC50: > 100 µM
